Values joined by “and” are separate entries in the source; they are usually repeats but may differ in a detail not shown here. Equal values may be shown once.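 Step 1: Grow cells in 96-well plates. Step 2: Expose to compound for 48 hours at 5 concentrations. Step 3: Interpolate endpoints linearly; if unreached, use highest concentration. Here, GI50 denotes the concentration required for 50% inhibition of growth. TGI: total growth inhibition.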 Where a SMILES comes first, the peptide text is derived from it. Bridges are numbered along the chain shown (N, C = ends). [ ]: non-standard residue; d: D form. aThr = C[C@H](O)[C@H](N)C(=O)O

Some test systems named below: HT29 colon; HOP-92 NSCLC; HCC-2998 colon; MCF7 breast; HOP-62 NSCLC; SW-620 colon; SK-OV-3 ovarian; SF-268 CNS; RPMI-8226 leukemia; NCI-H23 lung.
Holding throughout (assay): NCI tumour cell line growth inhibition, 48 h

Turning to `CC(C)C[C@@H]1NC(=O)[C@@H]2CCCN2C(=O)[C@@H]2CCCN2C(=O)[C@H](CC(C)C)NC(=O)[C@H](CO)NC(=O)[C@H](CCCCN)NC(=O)[C@H]([C@H](C)O)NC(=O)[C@@H]2CSSC[C@@H](NC1=O)C(=O)N[C@@H](Cc1ccccc1)C(=O)N1CCC[C@H]1C(=O)N[C@@H](CC(=O)O)C(=O)NCC(=O)N[C@@H](CCCN=C(N)N)C(=O)N2` (cyclo(C[aThr]KSLPPL[dC]FPDGR); disulfide 1-9), the GI50 with HT29 colon, in the assay on HOP-92 NSCLC, with HCC-2998 colon, with MCF7 breast, in the assay on HOP-62 NSCLC and with SW-620 colon was more than 50 µM throughout. The GI50 in the assay with SK-OV-3 ovarian, in the assay on SF-268 CNS, with RPMI-8226 leukemia and with NCI-H23 lung was more than 50 µM in each case. Moreover, the TGI with HT29 colon, in the assay on HOP-92 NSCLC, with HCC-2998 colon, in the assay on MCF7 breast, in the assay with HOP-62 NSCLC and in the assay on SW-620 colon was more than 50 µM throughout. Also, the TGI in the assay with SK-OV-3 ovarian, in the assay with SF-268 CNS, with RPMI-8226 leukemia and with NCI-H23 lung was more than 50 µM throughout.
With `COc1ccc(C(O)c2cc3c(N)c(C(=O)Nc4cccc5ccccc45)sc3nc2C)cc1` (configuration not stated), the GI50 with HT29 colon is 0.35 µM; in the assay on HOP-92 NSCLC, 0.911 µM; in the assay on HCC-2998 colon, 0.475 µM; in the assay with MCF7 breast it was 0.324 µM; in the assay on HOP-62 NSCLC, 1.27 µM; with SW-620 colon it was 0.284 µM. Moreover, the GI50 with SK-OV-3 ovarian was 0.643 µM; with SF-268 CNS, 0.615 µM; with RPMI-8226 leukemia, 4.17 µM; in the assay with NCI-H23 lung it was 0.562 µM. For the same molecule, the TGI in the assay on HOP-92 NSCLC was more than 27.5 µM; with HCC-2998 colon it was more than 54 µM; in the assay on MCF7 breast, more than 90.9 µM; in the assay with HOP-62 NSCLC it was more than 100 µM; in the assay on SW-620 colon, more than 100 µM; with SK-OV-3 ovarian it was more than 100 µM. Further, the TGI with SF-268 CNS, with RPMI-8226 leukemia and in the assay with NCI-H23 lung was more than 100 µM throughout.
In the case of `OCC1CC[N-]CC1.OCC1CC[N-]CC1.[Cl][Pt+2]([Cl])([Cl])[Cl]`, the GI50 with HT29 colon was 17.1 µM; in the assay with HOP-92 NSCLC it was 34.2 µM; in the assay on HCC-2998 colon, 35.4 µM; with MCF7 breast, 26.2 µM; in the assay with HOP-62 NSCLC, 33.1 µM; in the assay with SW-620 colon, 23 µM. The GI50 with SK-OV-3 ovarian was 36.9 µM; in the assay on SF-268 CNS it was 40.5 µM; in the assay with RPMI-8226 leukemia it was 15.2 µM; in the assay on NCI-H23 lung it was 28.6 µM. Moreover, the figures for the TGI in the assay on HT29 colon, with HOP-92 NSCLC and in the assay on RPMI-8226 leukemia were 51.7 µM, 87 µM and 53.1 µM, respectively.
For `CC(=O)O[C@H]1CC2C(C3CC[C@H](C(C)CCC(=O)O)[C@]31C)[C@H](OC(C)=O)C[C@@H]1CC3(CC[C@]21C)OOC1(CCC(C)CC1)OO3` (some centres not stated), the TGI in the assay on HT29 colon was 12.5 µM and 10.4 µM; with HOP-92 NSCLC it was 23.2 µM and 5.95 µM; in the assay with HCC-2998 colon it was 21.3 µM and 6.48 µM; in the assay on MCF7 breast, 30.4 µM and 38.1 µM; in the assay on HOP-62 NSCLC it was 7.39 µM and 3.49 µM; in the assay on SW-620 colon, 22.2 µM and 16 µM. Besides, the TGI in the assay on SK-OV-3 ovarian is 22.4 µM and 10.7 µM; in the assay with SF-268 CNS, 22.7 µM and 5.2 µM; in the assay on RPMI-8226 leukemia it was 6.9 µM and 4.79 µM; in the assay with NCI-H23 lung, 15.8 µM and 5.43 µM. In addition, the GI50 was 10.1 µM and 2.34 µM in the assay with HOP-92 NSCLC; 8.43 µM and 2.73 µM in the assay with HCC-2998 colon; 7.42 µM and 3.55 µM in the assay with SW-620 colon; 10.6 µM and 3.14 µM in the assay with SK-OV-3 ovarian; 6.18 µM and 2.11 µM with SF-268 CNS.
Regarding `COCCOC1=C(Cl)C(=O)c2ccccc2C1=O`, the GI50 in the assay with HT29 colon is 7.06 µM; with HOP-92 NSCLC, 1.41 µM; in the assay on HCC-2998 colon, 4.23 µM; with MCF7 breast, 3.06 µM; with HOP-62 NSCLC it was 3.92 µM; with SW-620 colon it was 1.7 µM. Moreover, the GI50 in the assay with SK-OV-3 ovarian was 4.55 µM; with SF-268 CNS, 2.24 µM; in the assay with RPMI-8226 leukemia, 2.31 µM; in the assay with NCI-H23 lung, 3.24 µM. Also, the TGI with HT29 colon was determined as 25.5 µM; with HOP-92 NSCLC it was 2.93 µM; in the assay with HCC-2998 colon it was 15 µM; in the assay with MCF7 breast, 14.7 µM; in the assay on HOP-62 NSCLC it was 14.8 µM; in the assay with SW-620 colon, 3.32 µM. In addition, the TGI in the assay on SK-OV-3 ovarian amounted to 16.8 µM; with SF-268 CNS, 9.32 µM; in the assay with RPMI-8226 leukemia, 6.75 µM; in the assay on NCI-H23 lung it was 13.5 µM.
Take `Fc1ccc(NC(c2ccc(F)cc2)C2CCN(CCCCc3ccccc3)CC2)cc1` (configuration not stated): the GI50 in the assay with HT29 colon is 1.4 µM; in the assay on HOP-92 NSCLC, 1.31 µM; with HCC-2998 colon, 1.76 µM; in the assay with MCF7 breast it was 1.64 µM; in the assay on HOP-62 NSCLC, 1.45 µM; in the assay on SW-620 colon it was 1.26 µM. In addition, the GI50 in the assay on SK-OV-3 ovarian was 1.86 µM; with SF-268 CNS, 1.68 µM; in the assay on RPMI-8226 leukemia it was 2.17 µM; with NCI-H23 lung it was 1.78 µM. The TGI turned out to be 3.03 µM with HT29 colon; 3.41 µM in the assay with HOP-92 NSCLC; 3.31 µM in the assay on HCC-2998 colon; 3.24 µM with MCF7 breast; 3 µM with HOP-62 NSCLC; 2.57 µM in the assay on SW-620 colon. Further, the TGI in the assay with SK-OV-3 ovarian was 3.94 µM; with SF-268 CNS, 3.83 µM; in the assay on RPMI-8226 leukemia, 4.78 µM; in the assay with NCI-H23 lung, 3.86 µM.
In the case of `C(=Nc1nc(SCc2ccccc2)nc2[nH]ncc12)c1cccs1`, the GI50 is 38.2 µM in the assay on HT29 colon; 10.7 µM with HOP-92 NSCLC; 37.7 µM in the assay with HCC-2998 colon; 40.4 µM in the assay with MCF7 breast; more than 100 µM with HOP-62 NSCLC; 47.2 µM in the assay on SW-620 colon. Also, the GI50 in the assay with SK-OV-3 ovarian was more than 100 µM; in the assay on SF-268 CNS it was 30.4 µM; with RPMI-8226 leukemia it was 27.6 µM; in the assay on NCI-H23 lung, 66.4 µM. The TGI in the assay with HT29 colon is more than 100 µM; in the assay on HOP-92 NSCLC, 50 µM; in the assay with HCC-2998 colon, more than 100 µM; with MCF7 breast it was more than 100 µM; with HOP-62 NSCLC it was more than 100 µM; with SW-620 colon it was more than 100 µM. Further, the TGI in the assay on SK-OV-3 ovarian, in the assay with SF-268 CNS, in the assay with RPMI-8226 leukemia and in the assay on NCI-H23 lung was more than 100 µM in each case.
In the case of `C=C(CN1CCc2[nH]c3ccc(F)cc3c2C1)c1ccc(C(=O)Nc2ccccc2N)cc1`, the GI50 in the assay with HT29 colon is 1.8 µM; in the assay with HOP-92 NSCLC, 10.7 µM; with HCC-2998 colon, 1.38 µM; in the assay with MCF7 breast, 2.45 µM; in the assay with HOP-62 NSCLC it was 0.605 µM; with SW-620 colon it was 0.715 µM. The GI50 in the assay with SK-OV-3 ovarian is 2.92 µM; with SF-268 CNS, 3.03 µM; in the assay with RPMI-8226 leukemia, 2.48 µM; in the assay on NCI-H23 lung, 2.22 µM. The TGI stood at 31.6 µM in the assay with HT29 colon; 36.7 µM in the assay with HOP-92 NSCLC; 3.82 µM in the assay with HCC-2998 colon; 69.2 µM in the assay on MCF7 breast; 8.38 µM with HOP-62 NSCLC; 15.6 µM in the assay on SW-620 colon. For the same molecule, the TGI was 11.8 µM in the assay on SK-OV-3 ovarian, 8.36 µM in the assay with SF-268 CNS, more than 100 µM in the assay on RPMI-8226 leukemia and 12.6 µM in the assay on NCI-H23 lung.
As to `COc1ccc(-c2cc(/C=C/C(=O)c3ccc(N)cc3)[nH]n2)cc1OC`, the GI50 in the assay on HT29 colon is 2.6 µM; in the assay with HOP-92 NSCLC it was 14.9 µM; in the assay on HCC-2998 colon, 2.02 µM; in the assay on MCF7 breast, 2.28 µM; in the assay on HOP-62 NSCLC, 2.8 µM; in the assay with SW-620 colon it was 2.5 µM. Besides, the GI50 in the assay on SK-OV-3 ovarian was 4.86 µM; in the assay on SF-268 CNS it was 1.89 µM; in the assay on RPMI-8226 leukemia, 1.28 µM; in the assay with NCI-H23 lung, 4.21 µM. Moreover, the TGI came out at 6.91 µM in the assay with HT29 colon; 30.9 µM in the assay with HOP-92 NSCLC; 3.83 µM in the assay with HCC-2998 colon; 8.48 µM in the assay with MCF7 breast; 9.67 µM with HOP-62 NSCLC; 6.94 µM in the assay on SW-620 colon. For the same molecule, the TGI in the assay on SK-OV-3 ovarian came out at 16.8 µM; in the assay with SF-268 CNS, 4.4 µM; in the assay with RPMI-8226 leukemia, 5.52 µM; in the assay on NCI-H23 lung, 19.3 µM.
As for `CCCCCC(=O)O[C@]1(C(C)=O)CCC2C3CCC4=CC(=O)CC[C@]4(C)C3CC[C@@]21C` (some centres not stated), the GI50 is 2.59 µM in the assay on HT29 colon; 0.766 µM with HOP-92 NSCLC; 2.55 µM in the assay on HCC-2998 colon; 2.51 µM in the assay with MCF7 breast; 3.33 µM in the assay on HOP-62 NSCLC; 2.86 µM in the assay on SW-620 colon. The GI50 is 3.25 µM in the assay with SK-OV-3 ovarian, 3.46 µM in the assay with SF-268 CNS, 1.42 µM with RPMI-8226 leukemia and 2.46 µM in the assay on NCI-H23 lung. The TGI in the assay on HT29 colon was determined as 7.88 µM; in the assay on HOP-92 NSCLC, 3.31 µM; in the assay with HCC-2998 colon, 7.56 µM; with MCF7 breast it was 8.39 µM; in the assay with HOP-62 NSCLC it was 10.9 µM; in the assay on SW-620 colon it was 15.1 µM. Further, the TGI in the assay on SK-OV-3 ovarian was 13.3 µM; in the assay with SF-268 CNS, 18 µM; with RPMI-8226 leukemia it was 4.82 µM; in the assay with NCI-H23 lung, 9.97 µM.
In the case of `O=NN(CCCl)C(=O)NC1CCC(CC(=O)O)CC1` (configuration not stated), the TGI with HT29 colon, in the assay on HOP-92 NSCLC, in the assay with HCC-2998 colon, with MCF7 breast, in the assay with HOP-62 NSCLC and with SW-620 colon was more than 100 µM in each case. Besides, the TGI in the assay with SK-OV-3 ovarian, with SF-268 CNS, in the assay on RPMI-8226 leukemia and in the assay on NCI-H23 lung was more than 100 µM in each case.

(Values after PubChem BioAssay (NCI).)
